# Test results reported in US20240424011A1, “COMBINATION THERAPY OF HYPOXIA-RESPONSIVE PRODRUG OF AN ANTICANCER DRUG AND RADIOTHERAPY, AND NOVEL HYPOXIA-RESPONSIVE PRODRUG” (UNIVERSITY OF TSUKUBA, priority 2021, published 2024).
# Columns and labels:
# [1] = test system: Human pancreatic cancer cells (MIA Paca-2); test: MIA Paca-2 subcutaneous implant in mice, palbociclib or its HAP with radiotherapy; format: in vivo, Balb/c nude mice; settings: oral 100 mg/kg twice/week plus 2 Gy; vs radiation alone and vs palbociclib plus radiation, FIG. 10
# Experimental: Human pancreatic cancer cells (MIA Paca-2) were subcutaneously implanted into Balb/c nude mice (6 mice per group), and palbociclib or palbociclib HAP was orally administered (100 mg/kg, twice/week) to examine the synergistic effect with radiotherapy (2 Gy on the day after drug administration, twice/week).
# [2] = test system: Human breast cancer cells (MCF-7); test: cell viability of MCF-7 at normal and low oxygen concentration, 2 days; format: cell-based; settings: MCF-7, normal vs lower (0.2%) oxygen, FIG. 9, 11
# Description: The results are illustrated in FIG. 11.
# [3] = test system: Human breast cancer cells (MDA-MB-231); test: cell viability of MDA-MB-231 at normal and low oxygen concentration, 4 days; format: cell-based; settings: MDA-MB-231, normal vs lower (0.2%) oxygen, FIG. 7
# [4] = test system: Human malignant melanoma (A375) cells; test: cell viability of A375 at normal and low oxygen concentration, 2 days; format: cell-based; settings: A375, normal vs lower (0.2%) oxygen, FIG. 5, 6, 8
# [5] = test system: Human pancreatic cancer cells (MIA Paca-2); test: In vivo study 1: MIA Paca-2 implant, gemcitabine or its HAP 120 mg/kg with radiotherapy; design: species or system Balb/c nude mice; settings: i.p. 120 mg/kg twice/week plus 2 Gy; for tumor growth inhibitory effect: vs radiation monotherapy, FIG. 12
# Experimental: Human pancreatic cancer cells (MIA Paca-2) were subcutaneously implanted into Balb/c nude mice (6 or 7 mice per group), respectively, and gemcitabine or gemcitabine HAP (prepared according to the method described in Examples of JP 5676020 B2) was intraperitoneally administered (120 mg/kg, twice/week) to examine the synergistic effect of the combination therapy with radiotherapy (2 Gy, on the day after drug administration, twice/week).
# [6] = test system: Human cholangiocarcinoma cells (HuCCT1); test: In vivo study 3: HuCCT1 implant, gemcitabine or its HAP 30 mg/kg with radiotherapy; design: species or system Balb/c nude mice; settings: i.p. 30 mg/kg twice/week plus 2 Gy; for tumor growth inhibitory effect: vs radiation monotherapy, FIG. 15
# Experimental: Human cholangiocarcinoma cells (HuCCT1) were subcutaneously implanted into Balb/c nude mice (5 mice per group), respectively, and gemcitabine or gemcitabine HAP was intraperitoneally administered (30 mg/kg, twice/week), respectively to examine the synergistic effect of the combination therapy with radiotherapy (2 Gy, on the day after drug administration, twice/week).
# [7] = test system: human breast cancer cells (MCF7); test: MCF7 subcutaneous implant in mice, doxorubicin or its HAP with radiotherapy; format: in vivo, Balb/c nude mice; settings: i.p. 4 or 16 mg/kg plus 0.5 Gy
# Experimental: Balb/c nude mice (6 mice or more per group) were subcutaneously implanted with […] sustained-release pellets (produced by Innovative Research of America) and human breast cancer cells (MCF7), and intraperitoneally administered with doxorubicin (4 mg/kg. Day 0 and 2) or doxorubicin HAP 4 mg/kg, or 16 mg/kg, Day 0, 2, 7 and 9) to examine the synergistic effect with radiotherapy (0.5 Gy, Day 1, 3, 8 and 10). The results are shown in a lower panel of FIG. 16.
# hypoxic cells = settings: compared to typical radiotherapy alone; cited from earlier work
# malignant tumor = test: therapy combined with radiotherapy (in vivo), summary in the disclosure; design: species or system experimental animals
# Description: Nevertheless, we investigated if there exists benefit or not in the therapy combined with radiotherapy using the PropHAP of gemcitabine. […] Even if the dose of the drug was increased, the effect stayed the same. […] Each PropHAP differs from gemcitabine in its chemical structure of the anticancer drug and the mechanism of action on tumors.
# [8] = test system: Human pancreatic cancer cells (MIA Paca-2); test: In vivo study 2: MIA Paca-2 implant, gemcitabine or its HAP 10 mg/kg with radiotherapy; design: species or system Balb/c nude mice; settings: i.p. 10 mg/kg twice/week plus 1 Gy, vs radiation monotherapy and gemcitabine plus radiation
# Experimental: Human pancreatic cancer cells (MIA Paca-2) were subcutaneously implanted to Balb/c nude mice (6 mice per group), and gemcitabine or gemcitabine HAP was intraperitoneally administered (10 mg/kg, twice/week) to examine the synergistic effect of the combination therapy with radiotherapy (1 Gy, on the day after drug administration, twice/week).
# [9] = test system: Human cancer cells (MIA Paca-2); test: In vivo study 2 (part 2): MIA Paca-2 implant, comparison with 2-nitroimidazole, with irradiation; design: species or system Balb/c nude mice; settings: i.p. 10 mg/kg twice/week plus 1 Gy; vs radiation alone, 2-nitroimidazole, and gemcitabine plus 2-nitroimidazole, FIG. 14
# Experimental: Human cancer cells (MIA Paca-2) were subcutaneously implanted into Balb/c nude mice (7 mice per group), respectively, and 2-nitroimidazole (10 mg/kg, twice/week), 2-nitroimidazole and gemcitabine (10 mg/kg respectively, twice/week), and gemcitabine HAP (10 mg/kg, twice/week) were intraperitoneally administered to examine the synergistic effect of the combination therapy with irradiation (1 Gy, on the day after drug administration, twice/week).
# [10] = test system: human breast cancer cells (MCF7); test: MCF7 subcutaneous implant in mice, ribociclib or its HAP with radiotherapy; format: in vivo, Balb/c nude mice; settings: oral 75 mg/kg twice/week plus 1 Gy; vs radiation alone or ribociclib plus radiation, FIG. 11
# Experimental: A 17β-estradiol sustained-release pellet (manufactured by Innovative Research of America) and human breast cancer cells (MCF7) were subcutaneously implanted to Balb/c nude mice (6 mice per group), and ribociclib or ribociclib HAP was orally administered (75 mg/kg, twice/week) to examine the synergistic effect with radiotherapy (1 Gy, on the day after drug administration, twice/week). The results are illustrated in a lower panel of FIG. 11.
# MDA-MB-231 cells = test: MDA-MB-231 subcutaneous implant in mice, drug combined with radiotherapy; format: in vivo, Balb/c nude mice; settings: oral 50/100 mg/kg plus 0.5 Gy; for tumor growth inhibitory effect: compared with radiation monotherapy, FIG. 3
# Experimental: Balb/c nude mice (6 or 7 mice per group) were each subcutaneously implanted with MDA-MB-231 cells, and administered with niraparib or niraparib HAP to analyze the synergistic effect with radiotherapy.
# Irradiation: 1 hour of drug administration followed by irradiation at 0.5 Gy
# PARP = test: detection of poly ADP ribosylated (PARylated) proteins by Western blotting; format: cell-based, Human; settings: hypoxic environment, FIG. 2
# Description: To determine whether the targeted PARP activity was inhibited under a hypoxic environment, proteins were recovered from the cells and poly ADP ribosylated (PARylated) proteins were detected by Western blotting.
# [11] = test system: Human breast cancer cells (MDA-MB-231); test: cell viability of MDA-MB-231 at normal and low oxygen concentration, 2 days; format: cell-based; settings: MDA-MB-231, normal vs low oxygen concentration (0.2%), FIG. 1
# [12] = vs gemcitabine-administered group
# [13] = with radiotherapy, radiation dose at which the parent compound causes side effects such as weight loss
# [14] = compared with niraparib-administered group
smiles,measurement,setting,value
CC(=O)c1c(C)c2cnc(Nc3ccc(N4CCN(C(=O)CCn5ccnc5[N+](=O)[O-])CC4)cn3)nc2n(C2CCCC2)c1=O [Compound 17],tumor growth inhibitory effect,[1],tumor growth inhibitory effect was enhanced when radiation was used in combination
same,cytotoxicity (cell viability),[2],cytotoxicity is recovered at the low oxygen concentration
O=C(CCn1ccnc1[N+](=O)[O-])Nc1ccccc1NC(=O)c1ccc(CNC(=O)OCc2cccnc2)cc1 [Compound 13],cytotoxicity (cell viability),[3],cytotoxicity is recovered at the low oxygen concentration
CCCS(=O)(=O)Nc1ccc(F)c(C(=O)c2cn(C(=O)CCn3ccnc3[N+](=O)[O-])c3ncc(-c4ccc(Cl)cc4)cc23)c1F [Compound 11],cytotoxicity (cell viability),[4],cytotoxicity is recovered at the low oxygen concentration
CC(C)(C)c1nc(-c2cccc(NS(=O)(=O)c3c(F)cccc3F)c2F)c(-c2ccnc(NC(=O)CCn3ccnc3[N+](=O)[O-])n2)s1 [Compound 9],cytotoxicity (cell viability),[4],cytotoxicity is recovered at the low oxygen concentration
"Nc1ccn([C@@H]2O[C@H](CO)[C@@H](O)C2(F)F)c(=O)n1 [gemcitabine, reference compound]",tumor growth inhibitory effect,[5],tumor growth inhibitory effect was enhanced
same,tumor growth inhibitory effect,[6],tumor growth inhibitory effect was enhanced
COc1cccc2c1C(=O)c1c(O)c3c(c(O)c1C2=O)CC(O)(C(=O)CO)CC3OC1CC(NC(=O)CCn2ccnc2[N+](=O)[O-])C(O)C(C)O1 (centres unmarked) [doxorubicin HAP],weight loss,[7]; vs doxorubicin-administered group,did not show the weight loss
same,tumor growth inhibitory effect,"[7]; vs radiotherapy alone and doxorubicin plus radiation, FIG. 16",tumor growth inhibitory effect was enhanced when radiation was used in combination
O=C(Cn1ccnc1[N+](=O)[O-])NCCO [etanidazole],survival rate,hypoxic cells,no significant improvement statistically in survival rate
O=C(c1ccc(F)c(F)c1Nc1ccc(I)cc1F)N1CC(O)([C@@H]2CCCCN2C(=O)CCn2ccnc2[N+](=O)[O-])C1 [Compound 15],cytotoxicity (cell viability),[4],cytotoxicity is recovered at the low oxygen concentration
O=C(CCn1ccnc1[N+](=O)[O-])Nc1ccn([C@@H]2O[C@H](CO)C(O)C2(F)F)c(=O)n1 (stereo in doubt) [gemcitabine HAP],body weight,[5]; [12],no decrease in body weight
same,survival rate,[5]; [12],improved survival rate
same,tumor growth inhibitory effect,[5],tumor growth inhibitory effect was enhanced
same,anticancer effects,"malignant tumor; radiation and drug dose at which the parent shows no side effect, vs radiation alone, parent alone, parent plus radiotherapy",significantly superior anticancer effects
same,therapeutic effect,malignant tumor; [13],almost equivalent to that of the parent compound
same,weight loss,malignant tumor; [13],not resulting in a significant weight loss
same,tumor growth inhibitory effect,[8]; FIG. 13,effect was higher than that of gemcitabine
same,tumor growth inhibitory effect,"[8]; FIG. 13, listed as gemcitabine-HAP",tumor growth inhibitory effect was enhanced
same,body weight,[6]; [12],did not show a decrease in body weight
same,tumor growth inhibitory effect,[6],tumor growth inhibitory effect was enhanced
same,tumor growth inhibitory effect,[9],tumor growth inhibitory effect was enhanced
CN(C)C(=O)c1cc2cnc(Nc3ccc(N4CCN(C(=O)CCn5ccnc5[N+](=O)[O-])CC4)cn3)nc2n1C1CCCC1 [Compound 19],tumor growth inhibitory effect,[10],tumor growth inhibitory effect was enhanced when radiation was used in combination
same,cytotoxicity (cell viability),[2],cytotoxicity is recovered at the low oxygen concentration
O=[N+]([O-])c1cncn1CCN1CCOCC1 [nimorazole],survival rate,hypoxic cells,no significant improvement statistically in survival rate
"NC(=O)c1cccc2cn(-c3ccc([C@@H]4CCCNC4)cc3)nc12 [niraparib, reference compound]",tumor growth inhibitory effect,MDA-MB-231 cells,tumor growth inhibitory effect is enhanced
NC(=O)c1cccc2cn(-c3ccc(C4CCCN(C(=O)CCn5ccnc5[N+](=O)[O-])C4)cc3)nc12 (centres unmarked) [Compound 3],PARP activity (PARylated proteins),PARP,PARP activity is specifically inhibited under the low oxygen environment
same,cytotoxicity (cell viability),[11],cytotoxicity is recovered at the low oxygen concentration
same,body weight,MDA-MB-231 cells; [14],no decrease in body weight
same,survival rate,MDA-MB-231 cells; [14],improved survival rate
same,tumor growth inhibitory effect,MDA-MB-231 cells,tumor growth inhibitory effect is enhanced
O=[N+]([O-])c1nccn1CC(O)CN1CCCCC1 (centres unmarked) [pimonidazole],survival rate,hypoxic cells,no significant improvement statistically in survival rate
